Results published in patent US7709482B2, “Polycyclic heteroaryl substituted triazoles useful as Axl inhibitors” (Rigel Pharmaceuticals, Inc., priority 2006, dated 2010).

Molecular target: T1, Axl (Homo sapiens, UniProt P30530)
T1 construct: endogenous in cells; host or cells: HeLa cells
T1 sequence (P30530 26-894): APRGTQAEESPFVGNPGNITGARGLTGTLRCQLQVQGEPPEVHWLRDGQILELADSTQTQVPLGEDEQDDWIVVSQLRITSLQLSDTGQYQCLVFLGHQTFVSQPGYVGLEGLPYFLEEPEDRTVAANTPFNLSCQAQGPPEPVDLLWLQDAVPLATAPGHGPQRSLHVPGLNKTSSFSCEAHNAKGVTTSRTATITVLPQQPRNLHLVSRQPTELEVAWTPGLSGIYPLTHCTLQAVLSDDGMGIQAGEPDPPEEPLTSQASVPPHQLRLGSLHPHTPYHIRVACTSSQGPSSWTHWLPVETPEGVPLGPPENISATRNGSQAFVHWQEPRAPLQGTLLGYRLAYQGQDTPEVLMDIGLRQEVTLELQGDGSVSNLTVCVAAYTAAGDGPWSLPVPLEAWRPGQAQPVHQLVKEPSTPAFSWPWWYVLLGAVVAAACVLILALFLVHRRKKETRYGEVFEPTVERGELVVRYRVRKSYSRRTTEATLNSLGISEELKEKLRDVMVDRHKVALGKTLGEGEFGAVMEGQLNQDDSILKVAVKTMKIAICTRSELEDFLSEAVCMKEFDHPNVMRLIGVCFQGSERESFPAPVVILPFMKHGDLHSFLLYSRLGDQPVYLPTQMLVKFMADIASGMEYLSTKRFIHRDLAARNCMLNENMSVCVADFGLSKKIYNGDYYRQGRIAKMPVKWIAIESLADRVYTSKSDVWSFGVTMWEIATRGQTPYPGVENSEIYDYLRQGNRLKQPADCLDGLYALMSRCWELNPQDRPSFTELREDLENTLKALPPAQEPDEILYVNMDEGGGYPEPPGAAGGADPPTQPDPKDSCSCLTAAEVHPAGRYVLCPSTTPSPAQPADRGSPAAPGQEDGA
Assay: Phospho-Akt In-Cell Western Assay (inhibition of Axl activity after Axl-antibody cross-linking)
Type: cell-based
Settings: Hela cells, phospho-Akt chemiluminescence normalized to relative cell number; compounds of formula (Ib), Table 2; read-out: IC50
Procedure, shortened: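 Phospho-Akt was detected in formaldehyde-fixed cells by in-cell immunostaining with HRP chemiluminescence. Before fixation, HeLa cells kept 24 h in low-serum medium containing 500 ng/mL Axl/Fc received compound for 1 h at 37 °C, followed by 5-min Axl activation through antibody clustering.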

Compared with `CN1CCN(c2ccc(Nc3nc(N)nn3-c3cc4c(nn3)-c3ccccc3CCC4)cc2F)CC1` [Compound 242, 1-(6,7-dihydro-5H-benzo[6,7]cyclohepta[1,2-c]pyridazin-3-yl)-N^5-(3-fluoro-4-(4-methylpiperazin-1-yl)phenyl)-1H-1,2,4-triazole-3,5-diamine], `Nc1nc(Nc2ccc(N3CCN(CC4CC4)CC3)c(F)c2)n(-c2cc3c(nn2)-c2ccccc2CCC3)n1` [Compound 244, 1-(6,7-dihydro-5H-benzo[6,7]cyclohepta[1,2-c]pyridazin-3-yl)-N^5-(3-fluoro-4-(4-cyclopropylmethylpiperazin-1-yl)phenyl)-1H-1,2,4-triazole-3,5-diamine] is lower in IC50: 1000 to 10000 nM for the first, under 1000 nM for the second. The second is the more potent here.

First: Nc1nc(Nc2ccc3c(c2)CNCC3)n(-c2cc3c(nn2)-c2ccccc2CCC3)n1 [Compound 243, 1-(6,7-dihydro-5H-benzo[6,7]cyclohepta[1,2-c]pyridazin-3-yl)-N^5-(1,2,3,4-tetrahydroisoquinolin-7-yl)-1H-1,2,4-triazole-3,5-diamine]
Second: Nc1nc(Nc2ccc3c(c2)CC[C@@H](N2CCCC2)CC3)n(-c2cc3c(nn2)-c2ccccc2CCC3)n1 [Compound 249, 1-(6,7-dihydro-5H-benzo[6,7]cyclohepta[1,2-c]pyridazin-3-yl)-N^5-(7-(S)-pyrrolidin-1-yl-6,7,8,9-tetrahydro-5H-benzo[7]annulene-2-yl)-1H-1,2,4-triazole-3,5-diamine]
The IC50 of the first is higher: 1000 to 10000 nM for the first, under 1000 nM for the second. The second is the more potent here.

Compared with `CN1CCC(N2CCc3ccc(Nc4nc(N)nn4-c4cc5c(nn4)-c4ccccc4CCC5)cc3C2)CC1` [Compound 245, 1-(6,7-dihydro-5H-benzo[6,7]cyclohepta[1,2-c]pyridazin-3-yl)-N^5-(2-(1-methylpiperidin-4-yl)-1,2,3,4-tetrahydroisoquinolin-7-yl)-1H-1,2,4-triazole-3,5-diamine], `Nc1nc(Nc2cnc3c(c2)CC2(CCC3)OCCO2)n(-c2cc3c(nn2)-c2ccccc2CCC3)n1` [Compound 248, 1-(6,7-dihydro-5H-benzo[6,7]cyclohepta[1,2-c]pyridazin-3-yl)-N^5-(5,7,8,9-tetrahydrospiro[cyclohepta[b]pyridine-6,2′[1,3]dioxolane]-3-yl)-1H-1,2,4-triazole-3,5-diamine] is higher in IC50: 1000 to 10000 nM for the first, over 20000 nM for the second. The first is the more potent here.

Same assay, conditions: inhibition of Axl activity; Table 1, compounds of formula (Ia); read-out: IC50

Compared with `Nc1nc(Nc2ccc(C3CCN(C4CC5CCC4C5)CC3)cc2)nn1-c1cc2c(nn1)-c1ccccc1SCC2` (centres unmarked) [Compound 236, 1-(6,7-dihydro-5H-benzo[2,3]thiepino[4,5-c]pyridazin-3-yl)-N^3-(4-(1-bicyclo[2.2.1]heptan-2-yl)-piperidin-4-ylphenyl)-1H-1,2,4-triazole-3,5-diamine], `Nc1nc(Nc2ccc3c(c2)CCC(NCC(=O)O)CC3)nn1-c1cc2c(nn1)-c1ccccc1CCC2` (centres unmarked) [Compound 237, 1-(6,7-dihydro-5H-benzo[6,7]cyclohepta[1,2-c]pyridazin-3-yl)-N^3-(7-(carboxymethyl)amino-6,7,8,9-tetrahydro-5H-benzo[7]annulene-2-yl)-1H-1,2,4-triazole-3,5-diamine] is higher in IC50: under 1000 nM for the first, over 20000 nM for the second. The first is the more potent here.

Compared with `Nc1nc(Nc2ccc(N3CCC(N4CCCC4)CC3)c(F)c2)nn1-c1cc(-c2ccccc2)c2c(n1)-c1ccccc1CCC2` [Compound 238, 1-(4-phenyl-6,7-dihydro-5H-benzo[6,7]cyclohepta[1,2-b]pyridin-2-yl)-N^3-(3-fluoro-4-(4-pyrrolidin-1-ylpiperidin-1-yl)phenyl)-1H-1,2,4-triazole-3,5-diamine], `CC1(C)COC2(CCCc3ncc(Nc4nc(N)n(-c5cc6c(nn5)-c5ccccc5CCC6)n4)cc3CC2)OC1` [Compound 247, 1-(6,7-dihydro-5H-benzo[6,7]cyclohepta[1,2-c]pyridazin-3-yl)-N^3-(5′,5′-dimethyl-6,8,9,10-tetrahydro-5H-spiro[cycloocta[b]pyridine-7,2′-[1,3]dioxane]-3-yl)-1H-1,2,4-triazole-3,5-diamine] is higher in IC50: 1000 to 10000 nM for the first, over 20000 nM for the second. The first is the more potent here.

First: COc1cc2ncnc(-n3nc(Nc4cnc5c(c4)CC4(CCC5)OCCO4)nc3N)c2cc1OC [Compound 239, 1-(6,7-dimethoxy-quinazolin-4-yl)-N^3-(5,7,8,9-tetrahydrospiro[cyclohepta[b]pyridine-6,2′-[1,3]dioxolane]-3-yl)-1H-1,2,4-triazole-3,5-diamine]
Second: Cc1csc2c(-n3nc(Nc4cnc5c(c4)CC4(CCC5)OCCO4)nc3N)nc(Cl)nc12 [Compound 240, 1-(2-chloro-7-methylthieno[3,2-d]pyrimidin-4-yl)-N^3-(5,7,8,9-tetrahydrospiro[cyclohepta[b]pyridine-6,2′-[1,3]dioxolane]-3-yl)-1H-1,2,4-triazole-3,5-diamine]
The IC50 of the first is higher: 1000 to 10000 nM for the first, under 1000 nM for the second.

`Cc1csc2c(-n3nc(Nc4cnc5c(c4)CCC4(CC5)OCCO4)nc3N)nc(Cl)nc12` [Compound 241, 1-(2-chloro-7-methylthieno[3,2-d]pyrimidin-4-yl)-N^3-(5,6,8,9-tetrahydrospiro[cyclohepta[b]pyridine-7,2′-[1,3]dioxolane]-3-yl)-1H-1,2,4-triazole-3,5-diamine] and `Cc1csc2c(-n3nc(Nc4cnc5c(c4)CCC4(CCC5)OCC(C)(C)CO4)nc3N)nc(Cl)nc12` [Compound 246, 1-(2-chloro-7-methylthieno[3,2-d]pyrimidin-4-yl)-N^3-(5′,5′-dimethyl-6,8,9,10-tetrahydro-5H-spiro[cycloocta[b]pyridine-7,2′-[1,3]dioxane]-3-yl)-1H-1,2,4-triazole-3,5-diamine] cannot be ordered by IC50: under 1000 nM for the first, under 1000 nM for the second.
